Test results published in PubChem BioAssay (NCI).
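Cultured in 96-well plates, cells were exposed to test compound for 48 hours across five concentrations. GI50 = concentration required for 50% inhibition of growth. The concentration for full growth arrest is given as TGI.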

Assays:
Experiment in all cases: NCI anticancer screen, dose series, 48 h
[1] = test system: SNB-75 CNS
[2] = test system: HOP-62 NSCLC
[3] = test system: SK-OV-3 ovarian
[4] = test system: SK-MEL-5 melanoma
[5] = test system: OVCAR-4 ovarian
[6] = test system: OVCAR-5 ovarian
[7] = test system: EKVX NSCLC
[8] = test system: SN12C renal
[9] = test system: 786-0 renal
[10] = test system: RPMI-8226 leukemia

Row | SMILES | GI50 [1] [µM] | TGI [1] [µM] | GI50 [2] [µM] | TGI [2] [µM] | GI50 [3] [µM] | TGI [3] [µM] | GI50 [4] [µM] | TGI [4] [µM] | GI50 [5] [µM] | TGI [5] [µM] | GI50 [6] [µM] | TGI [6] [µM] | GI50 [7] [µM] | TGI [7] [µM] | GI50 [8] [µM] | TGI [8] [µM] | GI50 [9] [µM] | TGI [9] [µM] | TGI [10] [µM] | GI50 [10] [µM]
1 | Nc1ncc(-c2ccc3ncnc(N4CCc5cc(F)c(Cl)cc54)c3c2)cc1C=O | 0.191 | 2.77 | 0.896 | > 100 | 1.04 | 6.42 | 1.87 | 4.54 | 2.98 | > 100 | 0.867 | > 100 | 0.371 | > 100 | 1.05 | > 100 | 0.658 | > 100 | – | –
2 | O=C(CCl)N1CCN(c2ccccn2)CC1 | – | > 10 | – | 46.2 | – | > 100 | – | 35 | – | 31 | – | 35.1 | – | 48.6 | – | – | – | 35.1 | > 100 | –
3 | CCN1C[C@@H](C)n2c(c(O)c3c(=O)n(Cc4ccc(F)c(Cl)c4)nc(C(=O)NC)c32)C1=O | 2.28 | 7.12 | 3.16 | 24.7 | 3.3 | 9.64 | 1.98 | 4.49 | 3.18 | 44.6 | 3.86 | > 100 | – | – | 3.08 | > 100 | 2.91 | 8.4 | 7.37 | 2.59
4 | Cn1ccc(S(=O)(=O)N2CCC[C@H](Nc3nccc(-c4c(-c5cccc(O)c5)nc5occn45)n3)C2)n1 | 1.9 | > 89 | 31 | > 100 | 5.71 | 49.6 | 3.51 | 18.6 | 14.5 | > 85.8 | 24.9 | > 100 | – | – | 8.01 | 51.7 | 20.1 | > 100 | 46.4 | 14.9
5 | C=CCc1cc(OC)c(O)c(C(=O)/C=C/c2ccc(OC)c(OC)c2)c1 | – | 59.3 | – | – | – | 64.9 | – | 36.6 | – | 34.9 | – | 45.4 | – | 52.5 | – | – | – | 35.9 | 3.31 | –
6 | O=C(CC(O)(C(F)(F)F)C(F)(F)F)c1cccs1 | – | > 10 | – | > 10 | – | > 10 | – | > 10 | – | > 10 | – | – | – | – | – | > 10 | – | > 10 | > 10 | –
7 | O=C1NC(c2cccc3ccccc23)Nc2ccc(Cl)cc21 (centres undefined) | – | 0.000902 | – | 11.9 | – | – | – | – | – | – | 0.0291 | 0.085 | 0.0129 | 83.3 | – | 17.9 | – | 23.1 | – | –
8 | CC1(C)CCC2(C(=O)O)C(O)CC3(C)C(=CCC4C5(C)CCC(OC6OCC(O)C(O)C6OC6OCC(O)C(O)C6OC6OCC(O)C(OC7OC(CO)C(O)C(O)C7O)C6O)C(C)(C)C5CCC43C)C2C1 (centres undefined) | – | 40.1 | – | > 100 | – | 40.2 | – | > 100 | – | 88.7 | – | > 100 | – | > 100 | – | 76.5 | – | > 100 | – | –
9 | O=C1NC(=NCCc2ccccc2F)S/C1=C\c1ccc2ncccc2c1 | 5.34 | 19.1 | 9.31 | > 25 | 7.82 | > 25 | 5.85 | 19.4 | 6.45 | > 20.6 | > 20.4 | > 25 | – | – | 8.18 | > 25 | 8.71 | > 25 | 24.9 | 4.18
10 | NC(N)=NCCCC(Nc1c2ccccc2nc2ccccc12)C(=O)O (centres undefined) | – | > 100 | – | – | – | – | – | – | – | 43.4 | – | > 100 | – | > 100 | – | > 100 | – | > 100 | > 100 | –
11 | COc1c(CC(C)=O)c2ccccc2n1C(C)=O | – | > 100 | – | > 100 | – | > 100 | – | – | – | > 100 | – | – | – | > 100 | – | > 100 | – | > 100 | > 100 | –
12 | O=C(CCl)N1CCN(c2ccccc2)CC1 | – | 32.5 | – | 36.3 | – | > 100 | – | 31.1 | – | 32.9 | – | 34.9 | – | 44.2 | – | – | – | 29.3 | 85.5 | –
13 | O=C1C=C(Nc2cc(Cl)ccc2Cl)c2ccccc2C1=O | – | 70.3 | – | 72.9 | – | > 100 | – | – | – | > 100 | – | > 100 | – | > 100 | – | > 100 | – | > 100 | 68 | –
14 | CC(=O)NC(CCc1ccc(Cl)c(Cl)c1)c1cccc(O)c(=O)c1 (centres undefined) | 1.87 | 17.1 | 0.393 | 12.2 | 1.43 | 17.4 | 0.234 | 1.14 | 0.302 | 40.4 | 1.58 | 21.8 | – | – | 0.485 | 13.1 | 0.591 | 12 | 19.7 | 1.22
15 | Oc1ccc(/C=N/NC(=S)Nc2ccccc2)nc1 | – | – | 0.766 | 7.29 | 0.748 | 32.6 | 0.754 | 3.36 | 0.579 | > 100 | 7.09 | > 100 | – | – | 1.07 | > 100 | 1.84 | 12.4 | > 100 | 3.44
16 | Oc1ccc(I)c2cccnc12 | – | – | – | > 100 | – | 49.5 | – | – | – | > 100 | – | > 100 | – | 65.2 | – | > 100 | – | > 100 | 62.9 | –
17 | N#Cc1ncc(-c2ccc(C(F)(F)F)cc2)c(NC2CCCCCC2)n1 | > 100 | > 100 | > 100 | > 100 | > 100 | > 100 | 33.5 | > 100 | 20.1 | > 100 | > 100 | > 100 | – | – | 34.8 | > 100 | 47.7 | > 100 | > 100 | 4.99
18 | NNC(=O)N/N=C(/CC1(O)C(=O)Nc2ccc(Br)cc21)c1ccccc1 (centres undefined) | – | > 100 | – | – | – | > 100 | – | – | – | – | – | – | – | > 100 | – | > 100 | – | > 100 | > 100 | –
19 | Cc1c(Br)c(Br)c2c3c1nc(N1CCNCC1)n3CCC2 | 1.96 | 4.1 | 1.87 | 4.87 | 3.59 | 13.1 | 1.89 | 3.42 | 2.46 | 6.1 | 1.72 | 3.54 | 1.9 | 4.32 | 1.42 | 2.85 | 2.63 | 7.33 | – | –
20 | C=C1CC[C@@](C)(c2cc(Br)c(C)cc2OC(C)=O)[C@H]1C | – | – | 17.5 | 31.8 | 16.4 | 29.9 | 15.6 | 29.2 | 3.63 | 17.4 | 15.1 | 28.7 | 14.7 | 28.2 | 11.4 | 23.8 | 12.6 | 25.4 | 24.9 | 9.55
21 | O=C(CC(=O)N1N=C(n2ccc3ccccc32)CC1c1ccccc1)Nc1ccccc1Cl (centres undefined) | – | > 100 | – | > 100 | – | > 100 | – | – | – | > 100 | – | – | – | > 100 | – | > 100 | – | > 100 | > 100 | –
22 | COC(=O)C1=C(C)N(NC(N)=O)C2(N)N(NC(N)=O)C(C)=C(C(=O)OC)C12C#N (centres undefined) | – | – | – | > 100 | – | > 100 | – | – | – | > 100 | – | > 100 | – | > 100 | – | > 100 | – | > 100 | > 100 | –
23 | Cc1cc(C)c([O-])c(-[n+]2c(-c3ccccc3)cc(-c3ccccc3)cc2-c2ccccc2)c1 | – | 17.5 | – | 22.8 | – | 27.2 | – | 5.71 | – | 18.5 | – | 18.4 | – | 21.4 | – | 18.5 | – | 19.7 | – | –
24 | CN1CCN(CCCCCOc2cc(O)c3c(=O)cc(-c4ccccc4)oc3c2)CC1 | 30.5 | 54.9 | 2.96 | 8.54 | 3.62 | 16.9 | 3.13 | 10.3 | 19.1 | 77.7 | 4 | 22.2 | 10.2 | > 100 | 11.8 | 27.6 | 12.4 | 26.6 | – | –
25 | CCCCNC(=O)CC1=C(C)/C(=C/c2[nH]c(-c3ccc[nH]3)cc2OC)N=C1C | 1.85 | 7.36 | 2.5 | 9.76 | 2.76 | 8.96 | – | – | 2.12 | 19.2 | 3.19 | 34.1 | 2.29 | 15.5 | – | – | 2.04 | 4.64 | 4.43 | 1.95
26 | CN(C)C/C=C/C(=O)Nc1ccc(C(=O)Nc2cccc(Nc3ncc(Cl)c(-c4c[nH]c5ccccc45)n3)c2)cc1 | 0.0316 | 0.101 | 0.0697 | > 100 | 0.12 | > 100 | 0.035 | > 100 | 0.021 | – | 0.0531 | – | 0.03 | 0.283 | 0.0249 | – | 0.0441 | – | – | –
27 | CCN1CCCCCCCCCC(=N/O)/C(=N\O)C1 | – | > 100 | – | > 100 | – | – | – | > 100 | – | – | – | > 100 | – | > 100 | – | > 100 | – | > 100 | – | –
